In ChEMBL document CHEMBL5608212, “N-acylbenzimidazoles as selective Acylators of the catalytic cystein of the coronavirus 3CL protease” (Eur J Med Chem, 2024):
Where “and” joins values, the source holds several entries; their conditions need not be identical. Equal entries are not always repeated. Calls of active or inactive are those of the source. The calls are words filed in the database; no cut-off is given here.

How the values were obtained:
[1] = molecular target: T1, Replicase polyprotein 1ab (Severe acute respiratory syndrome coronavirus 2, UniProt P0DTD1); assay: Inhibition of SARS-CoV-2 3CLpro using Dabcyl-KTSAVLQSGFRKM-Glu(Edans) as substrate preincubated for 1 hrs in presence of 2 mM GSH followed by substrate addition and measured after 30 mins by FRET assay
[2] = molecular target: Replicase polyprotein 1ab (Severe acute respiratory syndrome coronavirus 2) (UniProt P0DTD1); assay: Inhibition of SARS-CoV-2 3CLpro using Dabcyl-KTSAVLQSGFRKM-Glu(Edans) as substrate at 100 uM preincubated for 1 hrs in presence of 2 mM GSH followed by substrate addition and measured after 30 mins by FRET assay relative to control; settings: time 1.5 hrs
[3] = Inhibition of C-terminal 6-His tagged recombinant SARS-CoV 3CLpro (Ser1 to Gln306 residues) extracted from Escherichia coli using Dabcyl-KTSAVLQSGFRKM-Glu(Edans) as substrate preincubated 1 hr in presence of 2 mM GSH followed by substrate addition and measured after 30 mins by FRET assay; parameters: species or system Severe acute respiratory syndrome-related coronavirus
[4] = Inhibition of MERS-CoV 3CLpro using Dabcyl-KTSAVLQSGFRKM-Glu(Edans) as substrate preincubated 1 hr in presence of 2 mM GSH followed by substrate addition and measured after 30 mins by FRET assay; parameters: species or system Middle East respiratory syndrome-related coronavirus
[5] = Inhibition of human cathepsin 1 using QXL520/HiLyteFlour 488 as substrate preincubated for 60 mins and measured after 30 mins by fluorescence based assay
Human coronavirus 229E = assay: Antiviral activity against HCoV-229E expressing renilla luciferase reporter gene infected in human Huh-7 cells pre-infected […] for 1 hr followed by compound addition and measured after 6 hrs by luciferase based assay; format: functional, organism-based
[6] = molecular target: Replicase polyprotein 1ab (Human coronavirus 229E, UniProt P0C6X1); assay: Inhibition of hCoV-229E 3CLpro using Dabcyl-KTSAVLQSGFRKM-Glu(Edans) as substrate preincubated 1 hr in presence of 2 mM GSH followed by substrate addition and measured after 30 mins by FRET assay
Chain of Replicase polyprotein 1ab (Human coronavirus 229E, UniProt P0C6X1) (P0C6X1 2966-3267 limits assumed): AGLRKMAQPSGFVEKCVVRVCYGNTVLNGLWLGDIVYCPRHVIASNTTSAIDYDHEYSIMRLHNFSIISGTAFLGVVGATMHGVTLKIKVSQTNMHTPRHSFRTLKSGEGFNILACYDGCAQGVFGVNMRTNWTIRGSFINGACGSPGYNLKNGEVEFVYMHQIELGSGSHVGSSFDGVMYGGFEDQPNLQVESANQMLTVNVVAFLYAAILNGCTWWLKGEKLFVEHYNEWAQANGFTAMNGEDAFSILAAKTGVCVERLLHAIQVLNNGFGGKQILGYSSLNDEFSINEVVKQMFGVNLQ

[7] = molecular target: T2, Calpain-1 catalytic subunit (Homo sapiens, UniProt P07384); assay: Inhibition of human calpain 1 using (DABCYL)-TPLKSPPPSPR-(EDANS) as substrate incubated for 30 mins in presence of calcium ions and GSH and measured after 30 mins by fluorescence based assay
T2 sequence (P07384 whole entry): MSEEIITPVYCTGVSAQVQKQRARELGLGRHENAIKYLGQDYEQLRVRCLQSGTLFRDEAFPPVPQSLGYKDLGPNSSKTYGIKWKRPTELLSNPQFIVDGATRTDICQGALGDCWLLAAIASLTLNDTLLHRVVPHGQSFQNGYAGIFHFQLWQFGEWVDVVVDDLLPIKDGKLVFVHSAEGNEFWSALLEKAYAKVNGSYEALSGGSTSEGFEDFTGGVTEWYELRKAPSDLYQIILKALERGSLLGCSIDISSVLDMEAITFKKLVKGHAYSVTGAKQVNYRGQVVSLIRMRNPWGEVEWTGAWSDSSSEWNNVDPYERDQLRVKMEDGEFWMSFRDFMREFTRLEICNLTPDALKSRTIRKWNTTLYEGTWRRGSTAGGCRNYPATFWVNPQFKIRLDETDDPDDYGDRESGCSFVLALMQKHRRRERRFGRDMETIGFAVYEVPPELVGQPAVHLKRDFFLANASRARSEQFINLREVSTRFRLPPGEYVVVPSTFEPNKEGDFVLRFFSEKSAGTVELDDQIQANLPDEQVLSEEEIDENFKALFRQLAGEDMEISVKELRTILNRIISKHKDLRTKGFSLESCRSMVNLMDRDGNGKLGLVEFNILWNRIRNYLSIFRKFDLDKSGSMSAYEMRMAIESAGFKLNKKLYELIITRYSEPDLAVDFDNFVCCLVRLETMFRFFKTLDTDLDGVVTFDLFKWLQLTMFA

[8] = GSH reactivity in HEPES buffer at pH 7.4 assessed as half life at 1 uM; format: ADME; settings: glutathione (GSH) in HEPES buffer
SARS-CoV-2 = assay: microbe, parasite or virus in culture; settings: Severe acute respiratory syndrome coronavirus 2, Vero
[9] = molecular target: T1, Replicase polyprotein 1ab; assay: Inhibition of SARS-CoV-2 3CLpro using Dabcyl-KTSAVLQSGFRKM-Glu(Edans) as substrate preincubated for 60 mins in presence of GSH followed by substrate addition and measured after 30 mins by FRET assay
[10] = molecular target: T1, Replicase polyprotein 1ab; assay: Inhibition of SARS-CoV-2 3CLpro using Dabcyl-KTSAVLQSGFRKM-Glu(Edans) as substrate preincubated for 60 mins in absence of GSH followed by substrate addition and measured after 30 mins by FRET assay
[11] = molecular target: Replicase polyprotein 1ab (Severe acute respiratory syndrome coronavirus 2) (UniProt P0DTD1); assay: Reversible inhibition of SARS-CoV-2 3CLpro using Dabcyl-KTSAVLQSGFRKM-Glu(Edans) as substrate at 10 times IC50 preincubated for 1 hr followed by 100-fold dilution to 0.1 times IC50 with substrate solution by jump dilution assay
[12] = molecular target: Replicase polyprotein 1ab (Severe acute respiratory syndrome coronavirus 2) (UniProt P0DTD1); assay: Binding affinity to SARS-CoV-2 3CLpro assessed as change in melting temperature at 40 uM measured after 30 mins by SYPRO Orange staining based thermal shift assay
[13] = molecular target: T1, Replicase polyprotein 1ab; assay: Inhibition of SARS-CoV-2 3CLpro using Dabcyl-KTSAVLQSGFRKM-Glu(Edans) as substrate preincubated for 30 mins followed by substrate addition and measured after 30 mins by FRET assay
[14] = molecular target: Replicase polyprotein 1ab (Severe acute respiratory syndrome coronavirus 2) (UniProt P0DTD1); assay: Binding affinity to 2H,15N-labelled SARS-CoV-2 3CLpro substrate binding pocket assessed as chemical shift perturbations at interface of domains I and II at 500 uM by 2D 1H,15N-HSQC NMR analysis

SMILES | IC50 ([1]; read-out: IC50) | pIC50 [1] | also measured
CCSc1nc2ccccc2n1C(=O)c1ccc(C)cc1 | 3.76 µM |  | 
CSc1nc2ccccc2n1C(=O)NCc1ccc(C)cc1 | > 100 µM | < 4 | 
COc1cc2nc(SC)n(C(=O)c3ccc(C)cc3)c2cc1OC | 6.8 µM |  | 
Cc1ccc(C(=O)n2c(CC#N)nc3ccccc32)cc1 |  |  | inhibition [2]: 68%
CSc1nc2ccccc2n1C(=O)c1ccsc1 | 2.4 µM |  | 
Cc1ccc(C(=O)n2c(C)nc3ccccc32)cc1F | 0.15 µM |  | IC50 [3]: 0.21 µM; pIC50 [3]: 6.67; IC50 [4]: 2.8 µM; pIC50 [4]: 5.56; IC50 [5]: > 100 µM; EC50 (Human coronavirus 229E): 25.4 µM; IC50 [6]: 2.6 µM; IC50 [7]: > 100 µM
CSc1nc2ccccc2n1C(=O)c1ccncc1 | > 100 µM | < 4 | 
CSc1nc2ccccc2n1C(=O)c1ccc(Cl)cc1 | 1.1 µM |  | 
Cc1ccc(C(=O)n2c(C)nc3cc4c(cc32)OCCO4)cc1 | 7.5 µM |  | 
CSc1nc2ccccc2n1C(C)=O | > 100 µM | < 4 | 
Cc1ccc(C(=O)n2cnc3ccccc32)cc1 | 6.7 µM and 6.66 µM |  | 
CSc1nc2ccccc2n1C(=O)c1ccc(C)c(F)c1 | 0.09 µM |  | IC50 [3]: 0.34 µM; pIC50 [3]: 6.47; IC50 [4]: 1.3 µM; pIC50 [4]: 5.89; IC50 [5]: > 100 µM; EC50 (Human coronavirus 229E): 35.6 µM; IC50 [6]: 0.35 µM; IC50 [7]: > 100 µM
CSc1nc2ccccc2n1C(=O)C1CC1 |  |  | inhibition [2]: 61%
CCc1ccc(C(=O)n2c(SC)nc3ccccc32)cc1 | 1.8 µM |  | 
CSc1nc2ccccc2n1S(=O)(=O)c1ccc(C)cc1 | > 100 µM | < 4 | 
Cc1ccc(C(=O)n2c(C)nc3ccccc32)cc1 | 3.43 µM |  | 
CSc1nc2cc(F)ccc2n1C(=O)c1ccc(C)c(F)c1 | 0.1 µM |  | 
Cc1ccc(C(=O)n2c(C(F)(F)F)nc3ccccc32)cc1 | 17 µM |  | 
CSc1nc2cc3c(cc2n1C(=O)c1ccc(C)cc1)OCO3 | 0.07 µM |  | IC50 [3]: 0.15 µM; pIC50 [3]: 6.82; half-life at 1 µM [8]: 16 min; EC50 (SARS-CoV-2): 3.1 µM; IC50 [4]: 0.99 µM; pIC50 [4]: 6.01; IC50 [5]: > 100 µM; EC50 (Human coronavirus 229E): 4.8 µM; IC50 ([9]; read-out: pIC50 (converted)): 0.12 µM; IC50 [6]: 0.75 µM; IC50 [7]: > 100 µM; IC50 ([10]; read-out: pIC50 (converted)): 0.0851 µM; inhibition [11]: Active
CSc1nc2cc(Cl)ccc2n1C(=O)c1ccc(C)cc1 | 0.55 µM |  | 

SMILES | IC50 ([1]; read-out: IC50) | pIC50 [1] | also measured
COc1ccc(C(=O)n2c(SC)nc3ccccc32)cc1OC | 4 µM |  | 
COc1cc(C(=O)n2c(SC)nc3ccccc32)ccc1C | 0.66 µM |  | 
CSc1nc2cc(F)ccc2n1C(=O)c1ccc(C)cc1 | 0.27 µM |  | 
Cc1ccc(C(=O)n2nnc3ccccc32)cc1 | > 100 µM | < 4 | 
Cc1ccc(C(=O)n2ncc3ccccc32)cc1 | > 100 µM | < 4 | 
CSc1nc2ccccc2n1C(=O)c1ccc(C(C)(C)C)cc1 | > 100 µM | < 4 | 
CSc1nc2cc3c(cc2n1C(=O)c1ccc(C)c(F)c1)OCCO3 | 0.27 µM |  | 
Cc1ccc(C(=O)n2c(Cl)nc3ccccc32)cc1 |  |  | inhibition [2]: 61%
CSc1nc2ccc(F)cc2n1C(=O)c1ccc(C)c(F)c1 | 0.26 µM |  | 
CSc1nc2cc(C#N)ccc2n1C(=O)c1ccc(C)c(F)c1 | 0.89 µM |  | 
CSc1nc2ccc(Cl)cc2n1C(=O)c1ccc(C)cc1 | 0.89 µM |  | IC50 ([1]; read-out: pIC50 (converted)): 0.269 µM
CSc1nc2ccccc2n1C(=O)c1cccc(C(F)(F)F)c1 | 33.7 µM |  | 
Cc1ccc(C(=O)n2c(S)nc3ccccc32)cc1 | > 100 µM | < 4 | 
Cc1ccc(C(=O)n2c(N)nc3ccccc32)cc1 | > 100 µM | < 4 | 
CC(C)C[C@H](NC(=O)OCc1ccccc1)C(=O)N[C@@H](CC1CCNC1=O)C(O)S(=O)(=O)O (stereo partly drawn) |  |  | IC50 [3]: 0.05 µM; pIC50 [3]: 7.33; IC50 [4]: 0.34 µM; pIC50 [4]: 6.47; IC50 [5]: 0.001 µM
CSc1nc2cc(C)c(C)cc2n1C(=O)c1ccc(C)cc1 |  |  | inhibition [2]: 68%
CSc1nc2ccccc2n1C(=O)c1ccccc1 | 2.5 µM |  | 
CSc1nc2ccccc2n1C(=O)c1ccccc1C | > 100 µM | < 4 | 
Cc1ccc(C(=O)n2c(-c3ccccc3)nc3ccccc32)cc1 | > 100 µM | < 4 | 
COc1nc2ccccc2n1C(=O)c1ccc(C)cc1 | > 100 µM | < 4 | 

SMILES | IC50 ([1]; read-out: IC50) | pIC50 [1] | also measured
CSc1nc2ccccc2n1C(=O)c1cccc(C)c1 | 2.1 µM |  | 
CSc1nc2ccccc2n1C(=O)c1ccccc1C(F)(F)F | > 100 µM | < 4 | 
C=CCSc1nc2ccccc2n1C(=O)c1ccc(C)cc1 | 5.44 µM |  | 
CSc1nc2ccc(C#N)cc2n1C(=O)c1ccc(C)c(F)c1 | 6.3 µM |  | 
CSc1nc2cc3c(cc2n1C(=O)c1ccc(C)c(F)c1)OCO3 | 0.07 µM |  | pIC50 [3]: 6.49; IC50 [4]: 2.9 µM; pIC50 [4]: 5.53; EC50 (Human coronavirus 229E): 29.2 µM; IC50 [6]: 0.32 µM
Cc1ccc(C(=O)n2ccc3ccccc32)cc1 | > 100 µM | < 4 | 
Cc1ccc(C(=O)n2c(C#N)nc3ccccc32)cc1 | > 100 µM | < 4 | 
CSc1nc2ccccc2n1C(=O)c1ccc(C)cc1 | 0.39 µM |  | IC50 [3]: 1.6 µM; pIC50 [3]: 5.81; IC50 [4]: 5 µM; pIC50 [4]: 5.3; IC50 [5]: > 100 µM; ΔTm [12]: 4.2 °C; IC50 [6]: 1.9 µM; IC50 [7]: > 100 µM
CSc1nc2ccccc2n1C(=O)c1ccc(F)cc1 | 3.8 µM |  | 
CSc1nc2cc3c(cc2n1C(=O)c1ccc(C)cc1)OCCO3 | 0.14 µM |  | IC50 [3]: 1.7 µM; pIC50 [3]: 5.77; IC50 [4]: 2.5 µM; pIC50 [4]: 5.6; IC50 [5]: > 100 µM; IC50 [13]: 0.14 µM; EC50 (Human coronavirus 229E): 7.3 µM; IC50 ([9]; read-out: IC50): 0.39 µM; Activity [14]: Active; ΔTm [12]: 1.47 °C; IC50 [6]: 0.19 µM; IC50 [7]: > 100 µM; IC50 ([10]; read-out: IC50): 0.38 µM
CSc1nc2ccccc2n1C(=O)c1ccc2c(c1)OCCO2 | 1 µM |  | 
COc1ccc(C(=O)n2c(SC)nc3ccccc32)cc1 | 3 µM |  | 
CSc1nc2ccccc2n1C(=O)Oc1ccccc1 | > 100 µM | < 4 | 
CSc1nc2ccccc2n1C(=O)c1ccc(C)c(C)c1 | 1 µM |  | 
CCc1nc2ccccc2n1C(=O)c1ccc(C)cc1 | 6.55 µM |  | 
CSc1nc2ccccc2n1Cc1ccc(C)cc1 | > 100 µM | < 4 | 
CSc1nc2ccccc2n1C(=O)Cc1ccccc1 | > 100 µM | < 4 | 
CSc1nc2ccccc2n1C(=O)c1ccc(C(F)(F)F)cc1 | 2.72 µM |  | 
CSc1nc2ccc(F)cc2n1C(=O)c1ccc(C)cc1 | 0.2 µM |  | 
CSc1nc2ccccc2n1C(=O)c1ccc(C)c(Cl)c1 | 0.15 µM |  | 
